Test results published in ChEMBL document CHEMBL3580659, “One-pot multicomponent synthesis of indole incorporated thiazolylcoumarins and their antibacterial, anticancer and DNA cleavage studies” (2015).
Active and inactive are the calls of the source. No cut-off for these calls is given here.

Experiments:
SK-OV-3 [1] = experiment: Cytotoxicity against human SKOV3 cells assessed as cell growth level at 100 nM after 48 hrs by sulforhodamine B assay; assay type: functional
ACHN [2] = experiment: Cytotoxicity against human ACHN cells assessed as cell growth level at 10 nM after 48 hrs by sulforhodamine B assay; assay type: functional
RXF 393 [3] = experiment: Cytotoxicity against human RXF393 cells assessed as cell growth level at 10 uM after 48 hrs by sulforhodamine B assay; assay type: functional
SK-OV-3 [4] = experiment: Cytotoxicity against human SKOV3 cells assessed as cell growth level at 1 uM after 48 hrs by sulforhodamine B assay; assay type: functional
MOLT-4 [5] = experiment: Cytotoxicity against human MOLT4 cells assessed as cell growth level at 100 nM after 48 hrs by sulforhodamine B assay; assay type: functional
NCI-H23 = experiment: Cytotoxicity against human NCI-H23 cells assessed as cell growth level at 100 nM after 48 hrs by sulforhodamine B assay; assay type: functional
OVCAR-4 = experiment: Cytotoxicity against human OVCAR4 cells assessed as cell growth level at 10 uM after 48 hrs by sulforhodamine B assay; assay type: functional
SN12C [6] = experiment: Cytotoxicity against human SN12C cells assessed as cell growth level at 100 nM after 48 hrs by sulforhodamine B assay; assay type: functional
IGROV-1 = experiment: Cytotoxicity against human IGROV1 cells assessed as cell growth level at 100 nM after 48 hrs by sulforhodamine B assay; assay type: functional
DU-145 = experiment: Cytotoxicity against human DU145 cells assessed as cell growth level at 10 uM after 48 hrs by sulforhodamine B assay; assay type: functional
K562 = experiment: Cytotoxicity against human K562 cells assessed as cell growth level at 10 uM after 48 hrs by sulforhodamine B assay; assay type: functional
A549 = experiment: Cytotoxicity against human A549/ATCC cells after 48 hrs by sulforhodamine B assay; assay type: functional; details: A549, 48 h
SN12C [7] = experiment: Cytotoxicity against human SN12C cells assessed as cell growth level at 10 uM after 48 hrs by sulforhodamine B assay; assay type: functional
MDA-MB-435 [8] = experiment: Cytotoxicity against human MDA-MB-435 cells assessed as cell growth level at 100 nM after 48 hrs by sulforhodamine B assay; assay type: functional
ACHN [9] = experiment: Cytotoxicity against human ACHN cells after 48 hrs by sulforhodamine B assay; assay type: functional
MDA-MB-435 [10] = experiment: Cytotoxicity against human MDA-MB-435 cells assessed as cell growth level at 1 uM after 48 hrs by sulforhodamine B assay; assay type: functional
SNB-19 [11] = experiment: Cytotoxicity against human SNB19 cells assessed as cell growth level at 100 uM after 48 hrs by sulforhodamine B assay; assay type: functional
PC-3 = experiment: Cytotoxicity against human PC3 cells assessed as cell growth level at 1 uM after 48 hrs by sulforhodamine B assay; assay type: functional
MDA-MB-468 = experiment: Cytotoxicity against human MDA-MB-468 cells assessed as cell growth level at 10 nM after 48 hrs by sulforhodamine B assay; assay type: functional
LOX IMVI = experiment: Cytotoxicity against human LOXIMVI cells assessed as cell growth level at 10 uM after 48 hrs by sulforhodamine B assay; assay type: functional
MDA-MB-435 [12] = experiment: Cytotoxicity against human MDA-MB-435 cells assessed as cell growth level at 100 uM after 48 hrs by sulforhodamine B assay; assay type: functional
HCT-15 = experiment: Cytotoxicity against human HCT15 cells assessed as cell growth level at 1 uM after 48 hrs by sulforhodamine B assay; assay type: functional
OVCAR-3 [13] = experiment: Cytotoxicity against human OVCAR3 cells assessed as cell growth level at 10 uM after 48 hrs by sulforhodamine B assay; assay type: functional
OVCAR-5 [14] = experiment: Cytotoxicity against human OVCAR5 cells assessed as cell growth level at 100 uM after 48 hrs by sulforhodamine B assay; assay type: functional
MOLT-4 [15] = experiment: Cytotoxicity against human MOLT4 cells assessed as cell growth level at 1 uM after 48 hrs by sulforhodamine B assay; assay type: functional
SW-620 = experiment: Cytotoxicity against human SW620 cells assessed as cell growth level at 1 uM after 48 hrs by sulforhodamine B assay; assay type: functional
OVCAR-5 [16] = experiment: Cytotoxicity against human OVCAR5 cells assessed as cell growth level at 100 nM after 48 hrs by sulforhodamine B assay; assay type: functional
Escherichia coli = experiment: Induction of DNA cleavage of Escherichia coli pUC18 plasmid DNA at 50 ug/ml after 2 hrs by agarose gel elctrophoresis method
HCT-116 = experiment: Cytotoxicity against human HCT116 cells assessed as cell growth level at 10 uM after 48 hrs by sulforhodamine B assay; assay type: functional
Malme-3M = experiment: Cytotoxicity against human MALME-3M cells assessed as cell growth level at 10 uM after 48 hrs by sulforhodamine B assay; assay type: functional
SNB-19 [17] = experiment: Cytotoxicity against human SNB19 cells assessed as cell growth level at 10 nM after 48 hrs by sulforhodamine B assay; assay type: functional
HCC 2998 = experiment: Cytotoxicity against human HCC2998 cells assessed as cell growth level at 10 uM after 48 hrs by sulforhodamine B assay; assay type: functional
SNB-19 [18] = experiment: Cytotoxicity against human SNB19 cells assessed as cell growth level at 10 uM after 48 hrs by sulforhodamine B assay; assay type: functional
NCI-H460 = experiment: Cytotoxicity against human NCI-H460 cells assessed as cell growth level at 1 uM after 48 hrs by sulforhodamine B assay; assay type: functional
OVCAR-3 [19] = experiment: Cytotoxicity against human OVCAR3 cells assessed as cell growth level at 1 uM after 48 hrs by sulforhodamine B assay; assay type: functional
SN12C [20] = experiment: Cytotoxicity against human SN12C cells after 48 hrs by sulforhodamine B assay; assay type: functional
786-0 = experiment: Cytotoxicity against human 786-0 cells assessed as cell growth level at 10 uM after 48 hrs by sulforhodamine B assay; assay type: functional
RXF 393 [21] = experiment: Cytotoxicity against human RXF393 cells assessed as cell growth level at 1 uM after 48 hrs by sulforhodamine B assay; assay type: functional
CAKI-1 = experiment: Cytotoxicity against human CAKI-1 cells after 48 hrs by sulforhodamine B assay; assay type: functional; details: CAKI-1, 48 h
COLO 205 = experiment: Cytotoxicity against human COLO205 cells assessed as cell growth level at 1 uM after 48 hrs by sulforhodamine B assay; assay type: functional
ACHN [22] = experiment: Cytotoxicity against human ACHN cells assessed as cell growth level at 1 uM after 48 hrs by sulforhodamine B assay; assay type: functional
A498 = experiment: Cytotoxicity against human A498 cells assessed as cell growth level at 100 nM after 48 hrs by sulforhodamine B assay; assay type: functional
[23] = read-out: LC50 (the source's name)
[24] = read-out: pLC50 (the source's name) (converted)

Compound O=c1oc2ccccc2cc1-c1csc(N/N=C/c2c[nH]c3ccccc23)n1 has an Activity (SK-OV-3 [1]) of 90%, an Activity (ACHN [2]) of 99% and an Activity (RXF 393 [3]) of 25.19%. For the same compound, the Activity (SK-OV-3 [4]) was 64%, the Activity (MOLT-4 [5]) was 97% and the Activity (NCI-H23) was 88%. The Activity (OVCAR-4) was -4.09%, the Activity (SN12C [6]) was 90% and the Activity (IGROV-1) was 107%. It also gave an Activity (DU-145) of -36.09%, an Activity (K562) of 0.99% and a GI50 (A549; read-out: GI50) of 1.54 µM. For the same compound, the CC50 (A549; [23]) was > 100 µM, the TGI (A549; read-out: TGI) was 5.3 µM and the GI50 (A549; read-out: pGI50 (converted)) was 1.55 µM. The CC50 (A549; [24]) was > 100 µM, the TGI (A549; read-out: pTGI) was 5.25 µM and the Activity (SN12C [7]) was 0.22%. It also gave an Activity (MDA-MB-435 [8]) of 99%, a GI50 (ACHN [9]; read-out: GI50) of 1.31 µM and a CC50 (ACHN [9]; [23]) of 70.8 µM. It also gave a TGI (ACHN [9]; read-out: TGI) of 4.36 µM, a GI50 (ACHN [9]; read-out: pGI50 (converted)) of 1.32 µM and a CC50 (ACHN [9]; [24]) of 70.8 µM. For the same compound, the TGI (ACHN [9]; read-out: pTGI (converted)) was 4.37 µM, the Activity (MDA-MB-435 [10]) was 79% and the Activity (SNB-19 [11]) was -44%. The Activity (PC-3) was 84%, the Activity (MDA-MB-468) was 94% and the Activity (LOX IMVI) was -52.19%. For the same compound, the Activity (MDA-MB-435 [12]) was -69%, the Activity (HCT-15) was 84% and the Activity (OVCAR-3 [13]) was -80.31%. It also gave an Activity (OVCAR-5 [14]) of -36%, an Activity (MOLT-4 [15]) of 20% and an Activity (SW-620) of 72%. The Activity (OVCAR-5 [16]) was 99%, the Activity (Escherichia coli) was “Active” and the Activity (HCT-116) was 7.48%. It also gave an Activity (Malme-3M) of -10.02%, an Activity (SNB-19 [17]) of 91% and an Activity (HCC 2998) of 8.49%. It also gave an Activity (SNB-19 [18]) of 39.43%, an Activity (NCI-H460) of 52% and an Activity (OVCAR-3 [19]) of 61%. For the same compound, the GI50 (SN12C [20]; read-out: GI50) was 1.08 µM, the CC50 (SN12C [20]; [23]) was > 100 µM and the TGI (SN12C [20]; read-out: TGI) was 3.96 µM. The GI50 (SN12C [20]; read-out: pGI50 (converted)) was 1.07 µM, the CC50 (SN12C [20]; [24]) was > 100 µM and the TGI (SN12C [20]; read-out: pTGI (converted)) was 3.98 µM. The Activity (786-0) was -53.65%, the Activity (RXF 393 [21]) was 53% and the GI50 (CAKI-1; read-out: GI50) was 1.61 µM. For the same compound, the CC50 (CAKI-1; [23]) was > 100 µM, the TGI (CAKI-1; read-out: TGI) was 4.65 µM and the GI50 (CAKI-1; read-out: pGI50 (converted)) was 1.62 µM. The CC50 (CAKI-1; [24]) was > 100 µM, the TGI (CAKI-1; read-out: pTGI (converted)) was 4.68 µM and the Activity (COLO 205) was 109%. The Activity (ACHN [22]) was 72% and the Activity (A498) was 96%.
